Source: patent EP1200395B1, “UREA DERIVATIVES AS INHIBITORS OF CCR-3 RECEPTOR” (KIRIN BEER KABUSHIKI KAISHA, priority 1999, dated 2001)

target: T1, CCR-3 (Homo sapiens, UniProt P51677); test: Calcium mobilization assay (inhibition of eotaxin-induced intracellular calcium mobilization in CCR3/HEK293 cells); format: cell-based; parameters: expressed in transfected cells; settings: 1.25 µg/ml test compound; eotaxin 10 nM; CCR3/HEK293 cells (Table 2b)
T1 sequence (P51677 1-355): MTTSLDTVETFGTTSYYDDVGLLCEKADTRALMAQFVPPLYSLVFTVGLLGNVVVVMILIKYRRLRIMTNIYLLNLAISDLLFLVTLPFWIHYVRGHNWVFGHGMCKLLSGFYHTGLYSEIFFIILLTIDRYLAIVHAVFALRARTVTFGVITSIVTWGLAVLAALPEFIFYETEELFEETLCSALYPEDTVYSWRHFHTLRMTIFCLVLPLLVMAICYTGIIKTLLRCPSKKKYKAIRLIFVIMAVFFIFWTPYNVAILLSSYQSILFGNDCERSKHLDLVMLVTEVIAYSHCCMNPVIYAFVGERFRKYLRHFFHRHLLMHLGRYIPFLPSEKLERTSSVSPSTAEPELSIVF
Experimental: Compounds 93-162 used in this assay were synthesized by using the method described in Example 6.
CCR-3 transfectant cells (CCR3/HEK293) were isolated and resuspended with assay buffer (20 mM HEPES, 125 mM NaCl, 5 mM KCl; 0.5 mM glucose, 1 mM CaCl2, 1 mM MgCl2, 0.1 % BSA). After washing CCR3/HEK293 cells with assay buffer, cells were loaded with Fura-2/AM in assay buffer for 1 hour at room temperature. Cells were washed and resuspended with assay buffer at 5 x 10^6 cells/ml in assay buffer, and placed in a tissue culture plate (Falcon, no. 3296). Test compounds dissolved in DMSO were added to the wells, followed by eotaxin (10 nM at final concentration). Cells were excited at 340 nm and 380 nm in a fluorimeter (ARGUS50, FDSS2000, Hamamatsu Photonics) and the relative ratio of the fluorescence emitted at 510 nm was recorded. For a control, DMSO without a test compound was added. Intracellular calcium mobilization was calculated as described in Krogel C. et al. , FEBS Let. (1989) 243 , 41-46.

Compound	Ca^2+ mobilization 1.25 µg/ml (inhibition %)
CC[N+](CCCNC(=O)Nc1ccc(Cl)c(Cl)c1)(CCc1ccc(Cl)c(Cl)c1)CC1CCC1.[I-] (stereo not drawn) [compound 363]	56%
C=C(C)C[N+](CC)(CCCNC(=O)Nc1ccc(Cl)c(Cl)c1)CCc1ccc(Cl)cc1.[I-] (stereo not drawn) [compound 364]	66%
C=C(C)C[N+](CC)(CCCNC(=O)Nc1ccc(Cl)c(Cl)c1)CCc1cccc(Cl)c1.[I-] (stereo not drawn) [compound 365]	65%
C=C(C)C[N+](CC)(CCCNC(=O)Nc1ccc(Cl)c(Cl)c1)CCc1ccc(Cl)cc1Cl.[I-] (stereo not drawn) [compound 366]	46%
C=C(C)C[N+](CC)(CCCNC(=O)Nc1ccc(Cl)c(Cl)c1)CCc1ccc(Cl)c(Cl)c1.[I-] (stereo not drawn) [compound 367]	50%
CC[N+](CCCNC(=O)Nc1ccc(C#N)cc1)(CCc1cccc(Cl)c1)CCC(C)C.[I-] (stereo not drawn) [compound 393]	56%
CC[N+](CCCNC(=O)Nc1ccc(C#N)cc1)(CCOCCOC)CCc1ccc(Cl)cc1Cl.[I-] (stereo not drawn) [compound 395]	69%
CC[N+](CCCNC(=O)Nc1ccc(C#N)cc1)(CCOCCOC)CCc1ccc(Cl)c(Cl)c1.[I-] (stereo not drawn) [compound 396]	67%
CC[N+](CCCNC(=O)Nc1ccc(C#N)cc1)(CCc1cccc(Cl)c1)CC1CCC1.[I-] (stereo not drawn) [compound 397]	69%
CC[N+](CCCNC(=O)Nc1ccc(C#N)cc1)(CCc1ccc(Cl)cc1Cl)CC1CCC1.[I-] (stereo not drawn) [compound 398]	70%
C=C(C)C[N+](CC)(CCCNC(=O)Nc1ccc(C#N)cc1)CCc1cccc(Cl)c1.[I-] (stereo not drawn) [compound 399]	58%
C=C(C)C[N+](CC)(CCCNC(=O)Nc1ccc(C#N)cc1)CCc1ccc(Cl)cc1Cl.[I-] (stereo not drawn) [compound 400]	68%
C=C(C)C[N+](CC)(CCCNC(=O)Nc1ccc(C#N)cc1)CCc1ccc(Cl)c(Cl)c1.[I-] (stereo not drawn) [compound 401]	57%
CC[N+](CCCNC(=O)Nc1ccc(OC)cc1)(CCc1cccc(Cl)c1)CCC(C)C.[I-] (stereo not drawn) [compound 435]	62%
CC[N+](CCCNC(=O)Nc1ccc(OC)cc1)(CCc1ccc(Cl)c(Cl)c1)CCC(C)C.[I-] (stereo not drawn) [compound 436]	57%
CC[N+](CCCNC(=O)Nc1ccc(OC)cc1)(CCc1ccc(Cl)c(Cl)c1)CC(N)=O.[I-] (stereo not drawn) [compound 437]	64%
CC[N+](CCCNC(=O)Nc1ccc(OC)cc1)(CCc1ccc(Cl)cc1)CC1CCC1.[I-] (stereo not drawn) [compound 440]	62%
CC[N+](CCCNC(=O)Nc1ccc(OC)cc1)(CCc1cccc(Cl)c1)CC1CCC1.[I-] (stereo not drawn) [compound 441]	71%
CC[N+](CCCNC(=O)Nc1ccc(OC)cc1)(CCc1ccc(Cl)cc1Cl)CC1CCC1.[I-] (stereo not drawn) [compound 442]	63%
CC[N+](CCCNC(=O)Nc1ccc(OC)cc1)(CCc1ccc(Cl)c(Cl)c1)CC1CCC1.[I-] (stereo not drawn) [compound 443]	69%
C=C(C)C[N+](CC)(CCCNC(=O)Nc1ccc(OC)cc1)CCc1ccc(Cl)cc1.[I-] (stereo not drawn) [compound 444]	72%
C=C(C)C[N+](CC)(CCCNC(=O)Nc1ccc(OC)cc1)CCc1cccc(Cl)c1.[I-] (stereo not drawn) [compound 445]	63%
C=C(C)C[N+](CC)(CCCNC(=O)Nc1ccc(OC)cc1)CCc1ccc(Cl)cc1Cl.[I-] (stereo not drawn) [compound 446]	76%
C=C(C)C[N+](CC)(CCCNC(=O)Nc1ccc(OC)cc1)CCc1ccc(Cl)c(Cl)c1.[I-] (stereo not drawn) [compound 447]	65%
